Test results taken from patent US12435050B2, “Benazolin-choline and its use in the agrochemical field” (BAYER AKTIENGESELLSCHAFT, priority 2019, dated 2025).
Entries after “also recorded” stand apart in the source; their conditions may differ. Like-named read-outs stand apart in the source and are kept apart here.

Tests used:
[1] = test system: Amaranthus retroflexus (AMARE); experiment: Greenhouse weed control efficacy on AMARE; type: in vivo; settings: for % Control compared to untreated AMARE plants 21 DAA: 100 g a.e./ha, AMARE at BBCH 16-19 at application, visual rating 21 DAA; for % Control compared to untreated plants 21 DAA AMARE: BBCH 16-19, 21 DAA
Source text: (§1) The different forms of benazolin were applied to weed plants in the greenhouse or in the field at the growth stage indicated for the different weed species hereinafter. The trials in the greenhouse were sprayed with an application volume of 300 L/ha with an automated track sprayer. The plots in the field were sprayed with an application volume of 140 L/ha with a hand held spray boom. Twenty-one days after application (21 DAA) or twenty-eight days after application (28 DAA) the different weed species were visually rated on a percentage scale in relation to the untreated control (100%=all plants dead; 50%=green plant biomass reduced by 50%, and 0%=no discernible difference=like control plot). The growth stages of the different weed species are indicated according to the BBCH monograph “Growth stages of mono- and dicotyledonous plants”, 2nd edition, 2001, ed. Uwe Meier, Federal Biological Research Centre for Agriculture and Forestry (Biologische Bundesanstalt für Land and Forstwirtschaft).

[2] = test system: Chenopodium album (CHEAL); experiment: Greenhouse weed control efficacy on CHEAL; type: in vivo; settings: BBCH 15-24, 21 DAA
Source text: as §1

[3] = cited from earlier work
[4] = test system: Alternanthera tenella (ALRTE); experiment: Field weed control efficacy on ALRTE; type: in vivo; settings: 200 g a.e./ha, ALRTE at BBCH 14-16 at application
Source text: as §1

[5] = test system: Euphorbia heterophylla (EPHHL); experiment: Field weed control efficacy on EPHHL; type: in vivo; settings: 200 g a.e./ha, EPHHL at BBCH 16-17 at application
Source text: as §1

[6] = test system: Portulaca oleracea (POROL); experiment: Field weed control efficacy on POROL; type: in vivo; settings: 200 g a.e./ha, POROL at BBCH 21-22 at application
Source text: as §1

[7] = Formulation compatibility: crystal formation after low temperature storage, mixing with glyphosate (Roundup Weathermax); type: physicochemical; settings: benazolin salt SL10 mixed with Roundup Weathermax, ratio 4:1 (a.e., w/w), 5° C. for 2 days
Method: (§2) Here simple mixing experiments were performed with soluble liquid SL 10 formulations of benazolin salts containing […] a.e. of benazolin (see General procedure 51 above) containing no surfactant and commercially available dicamba and glyphosate formulations.
(§3) Formulation compatibility (solubility, miscibility and storability) tests of different benazolin salt SL 10 formulations in mixture with commercial formulations of herbicides such as dicamba or glyphosate were performed.
In a second experiment, Roundup® Weathermax was tank mixed with the respective benazolin salt SL 10 formulation in a 4:1 ratio by weight (w/w) based on the respective a.e. contents (in Table B5b referred to as “Ratio”) and the vial placed at 5° C. for 2 days.

[8] = Formulation compatibility: crystal formation after low temperature storage, mixing with dicamba (Clarity); type: physicochemical; settings: benazolin salt SL10 mixed with Clarity, ratio 2:1 (a.e., w/w), 5° C. for 2 days
Method: as §2, §3
In a first experiment, Clarity® (a commercial formulation of dicamba) was tank mixed with the respective benazolin salt SL 10 formulation in a 2:1 ratio by weight (w/w) based on the respective a.e. contents (in Table B5a referred to as “Ratio”) and the vial placed at 5° C. for 2 days.

[9] = benazolin salt 100 g a.e./ha in combination with 100 g a.e./ha dicamba (Clarity)
[10] = benazolin salt 100 g a.e./ha in combination with 200 g a.e./ha dicamba (Clarity)
[11] = benazolin salt 100 g a.e./ha in combination with 300 g a.e./ha dicamba (Clarity)
[12] = free acid, temperature not printed with the values (b59 refers to 25° C.)

| SMILES | % Control compared to untreated AMARE plants 21 DAA [1] [%] | % Control compared to untreated plants 21 DAA AMARE [1, 9] [%] | % Control compared to untreated plants 21 DAA AMARE [1, 10] [%] | % Control compared to untreated plants 21 DAA AMARE [1, 11] [%] | % Control compared to untreated plants 21 DAA CHEAL [2, 9] [%] | % Control compared to untreated plants 21 DAA CHEAL [2, 10] [%] | % Control compared to untreated plants 21 DAA CHEAL [2, 11] [%] | % Control compared to untreated ALRTE plants 21 DAA [4] [%] | % Control compared to untreated EPHHL plants 28 DAA [5] [%] | % Control compared to untreated POROL plants 28 DAA [6] [%] | Microscopic evaluation (crystal formation) [7] | also measured |
| --- | --- | --- | --- | --- | --- | --- | --- | --- | --- | --- | --- | --- |
| O=C(O)Cn1c(=O)sc2cccc(Cl)c21 [Benazolin-BAPMA] | 65 | 35 | 50 | 65 | 50 | 65 | 67 |  |  |  |  |  |
| O=C(O)COc1ccc(Cl)cc1Cl [2,4-D, 2,4-dichlorophenoxy)acetic acid] |  |  |  |  |  |  |  |  |  |  |  | vapor pressure [3, 12]: about 0.019 mPa |
| O=C(O)Cn1c(=O)sc2cccc(Cl)c21 [Benazolin-DGA] | 40 | 35 | 40 | 55 | 25 | 65 | 50 | 44 | 8 | 50 | Crystal formation | Microscopic evaluation (shape of crystals) [7]: needles; Microscopic evaluation (size of crystals in μm) [7]: (60-100 μm), |
| O=C([O-])Cn1c(=O)sc2cccc(Cl)c21.[K+] [Benazolin-K] |  |  |  |  |  |  |  |  |  |  | Crystal formation | Microscopic evaluation (shape of crystals) [7]: platelets + needles; Microscopic evaluation (size of crystals in μm) [7]: (20-50 μm), |
| O=C(O)Cn1c(=O)sc2cccc(Cl)c21 [Benazolin-choline] | 70 | 50 | 80 | 75 | 70 | 80 | 85 | 48 | 13 | 100 | no crystal formation was observed; also recorded: No crystals | Microscopic evaluation (crystal formation) [8]: no crystal formation was observed; also recorded: No crystals |
| O=C(O)Cn1c(=O)sc2cccc(Cl)c21 [Benazolin-DEA] |  |  |  |  |  |  |  |  |  |  |  | Microscopic evaluation (crystal formation) [8]: Crystal formation; Microscopic evaluation (shape of crystals) [8]: platelets + needles; Microscopic evaluation (size of crystals in μm) [8]: (20-40 μm), |
| COc1c(Cl)ccc(Cl)c1C(=O)O [Dicamba, 3,6-dichloro-2-methoxybenzoic acid] |  |  |  |  |  |  |  |  |  |  |  | vapor pressure [3, 12]: 4.5 mPa |
| CCOC(=O)Cn1c(=O)sc2cccc(Cl)c21 [Benazolin-ethyl, Ethyl (4-chloro-2-oxo-1,3-benzothiazol-3(2H)-yl)acetate] | 35 |  |  |  |  |  |  | 40 | 8 | 88 |  |  |
| O=C(O)Cn1c(=O)sc2cccc(Cl)c21 [Benazolin, 4-Chloro-2,3-dihydro-2-oxo-1,3-benzothiazol-3-ylacetic acid] | 25 |  |  |  |  |  |  | 40 | 5 | 88 |  | vapor pressure ([3]; at 20° C.): 0.0001 mPa |
